B1: T25472: A. palmeri OEP80 trigger dsRNA polynucleotide, SEQ ID NO: 1562 (nucleic acid, listed as Amaranthus palmeri)
chain: GTCATAAAAGATTTCTACAACAGCGCTCTTACGGCAAGTGGGAATACTCATGATAATATGC
modifications: double-stranded RNA trigger, chemistry not given here, further chemistry not given here
B2: T25454: A. palmeri OEP80 trigger dsRNA polynucleotide, SEQ ID NO: 1544 (nucleic acid, listed as Amaranthus palmeri)
chain: GATACTAGGGATGGTATTAGATTGGTCTTTCAGGTAGAACCAAACCAGGAGTTTAGAGGACTGGTGTGC
modifications: double-stranded RNA trigger, chemistry not given here, further chemistry not given here

system: Amaranthus palmeri plants (R22 glyphosate resistant biotype); assay: OEP80 trigger dsRNA polynucleotides followed by 2X WMAX, injury rating (FIG. 1); format: in vivo; conditions: 8 nmol/plant, 0.5-1.0 percent Silwet L-77 and buffer, 2X WMAX one day later; rated 14 days after WMAX; baseline 40 percent
Protocol: FIG. 1. Treatment of Amaranthus palmeri with dsRNA trigger polynucleotides targeting OEP80.
The following procedure is used for all assays described in this example. Approximately four-week old Amaranthus palmeri plants (glyphosate-resistant Palmer amaranth, “R-22”) are used in this assay. Plants are treated with 0.5-1.0 percent Silwet L-77 solution freshly made with ddH2O. Two fully expanded leaves per plant (one cotyledon, one true leaf) are treated with the polynucleotide/Silwet L-77 solution. Final concentration for each dsRNA polynucleotide was 25 microM) unless otherwise stated. Twenty microliters of the solution are applied to the top surface of each of the two pre-treated leaves to provide a total of 40 microliters (1-4 nmol polynucleotide) for each plant.
Spray solutions are prepared the same day as spraying. Single oligonucleotide molecules are applied at rates between 0.04 and 0.18 mg/ml in 20 mM potassium phosphate buffer (pH 6.8) are added to spray solutions 15 to 50 minutes before spraying. One-to-two-ml spray solutions were applied using a custom low-dead-volume sprayer (“milli applicator”) at 8-30 gpa (gallons per acre) to one-to-four inch tall plants. Treated plants are place in a greenhouse set for either a 26.7/21.1° C. or 29.4/21.1° C. 14/10 hour temperature and supplemental light schedule. The amount of response relative to unsprayed treatments is collected at various time intervals up to 21 days after treatment.
A common spray nozzle used for all applications made with the track sprayer is the Turbo Teejet air induction nozzle (015) nozzle with air pressure set at a minimum of 20 psi (pounds per square inch or […]). This style nozzle is currently being utilized to lessen shear forces that can damage or otherwise change large macromolecules that can seen with other nozzle styles. The height of the spray nozzle is to be 16-18 inches above top of plant material. Treatments are to be made when plants reach the desired size, height or leaf stage.
Application rates are chosen so as to achieve percent control ratings in the range of 50 percent at the lowest rate to 90 percent control at the highest rate. The rates in this control range provide the best possible efficacy comparisons among formulations, allowing separation of relative performance of test samples. The rate of herbicide used in these studies is typically at the manufacturer's recommended use rate. On occasion lower or higher rates may be necessary depending on test objectives. The rate structure used for a given test will be dependent on the environmental conditions at the time of spray application (time of year), the plant species being treated (highly susceptible or tough to kill) and age (or size) of plants to be treated.
Amaranthus palmeri plants (R22 glyphosate resistant biotype) were treated following the protocol described in Example 3. Trigger dsRNA polynucleotides shown in Table 5 (SEQ ID NO: 1535-1573, plus strand sequence illustrated) are targeting the A. palmeri OEP80 gene coding region (SEQ ID NO: 365). The polynucleotides were topically applied at 8 nmol/plant in a composition comprising 0.5-1.0 percent Silwet L-77 and buffer followed one day later by treatment with 2× WeatherMAX (WMAX). Injury rating of the treated plants was conducted 14 days after the WMAX treatment. The control treatments were buffer alone and 2 rates (4 nmol and 8 nmol) of a trigger polynucleotide (oligo 5.3) targeting the A. palmeri EPSPS coding gene sequence. The average baseline level of injury effect of buffer plus WMAX was set at 40 percent for this experiment. […] Additionally, 4 regions of the target gene sequence were identified in which the polynucleotides in those regions were particularly effective, these regions are between nucleotide positions 369-701, 1016-1168, 1364-1622 and 1683-1792 of SEQ ID NO: 365.

Question: For “T25452: A. palmeri OEP80 trigger dsRNA polynucleotide, SEQ ID NO: 1542 (GGAGGCATTAATGGCATTGAAAGCTTGCCGGGCGAATTCAGCTTTGACTGTGC; double-stranded RNA trigger, chemistry not given here, further chemistry not given here; listed as Amaranthus palmeri) [Oligo T25452]”, which “Injury rating: enhancement of the effect of WMAX (FIG. 1)” value (“Injury rating: enhancement” for short) is on record?
Answer: The value was “able to enhance the effect of WMAX”.

Question: With “T25455: A. palmeri OEP80 trigger dsRNA polynucleotide, SEQ ID NO: 1545 (GCGAAGGAGCTAATGTTCTCCCTTCCAAGTTTGTAGAGGATTCATTTC; double-stranded RNA trigger, chemistry not given here, further chemistry not given here; listed as Amaranthus palmeri) [Oligo T25455]” as the molecule, how does the “Injury rating: enhancement” value read?
Answer: Its value is “able to enhance the effect of WMAX”.

Question: How did the “Injury rating: enhancement” value turn out when “T25456: A. palmeri OEP80 trigger dsRNA polynucleotide, SEQ ID NO: 1546 (GTGATGGATATGGGAAAGTGGTCAATATCAGGCGTTTGGATGAAGTGATTGATTC; double-stranded RNA trigger, chemistry not given here, further chemistry not given here; listed as Amaranthus palmeri) [Oligo T25456]” was run?
Answer: Its value is “able to enhance the effect of WMAX”.

Question: “T25457: A. palmeri OEP80 trigger dsRNA polynucleotide, SEQ ID NO: 1547 (GATTCTATAAATGGATGGTACATGGAGCGTGGTCTTTTTGGCATGGTTTC; double-stranded RNA trigger, chemistry not given here, further chemistry not given here; listed as Amaranthus palmeri) [Oligo T25457]” was tested. Which “Injury rating: enhancement” value did it give?
Answer: Its value is “able to enhance the effect of WMAX”.

Question: How did the “Injury rating: enhancement” value turn out when “T25464: A. palmeri OEP80 trigger dsRNA polynucleotide, SEQ ID NO: 1554 (GTTTCTCGGCTGGTGGTGGTATTTCGAGCGGGATAACGAGCGGACCGC; double-stranded RNA trigger, chemistry not given here, further chemistry not given here; listed as Amaranthus palmeri) [Oligo T25464]” was run?
Answer: The value was “able to enhance the effect of WMAX”.

Question: With “T25465: A. palmeri OEP80 trigger dsRNA polynucleotide, SEQ ID NO: 1555 (GCTATCAGGTTTAATTGGAAGCTTTGCATATTCTCACAGGAATCTGTTTGGAAAAAATC; double-stranded RNA trigger, chemistry not given here, further chemistry not given here; listed as Amaranthus palmeri) [Oligo T25465]” as the molecule, how does the “Injury rating: enhancement” value read?
Answer: Its value is “able to enhance the effect of WMAX”.

Question: “T25466: A. palmeri OEP80 trigger dsRNA polynucleotide, SEQ ID NO: 1556 (GAAAAAATCAAAAAGTAAATGTCTCTCTTGAAAGAGGCCAAATCGACTCTATCTTCC; double-stranded RNA trigger, chemistry not given here, further chemistry not given here; listed as Amaranthus palmeri) [Oligo T25466]” was tested. Which “Injury rating: enhancement” value did it give?
Answer: The value was “able to enhance the effect of WMAX”.

Question: “T25471: A. palmeri OEP80 trigger dsRNA polynucleotide, SEQ ID NO: 1561 (GACTTACGTTTCAGCATGCTGGTGTCCGTGATGAAAAAGGGAACCCCGTC; double-stranded RNA trigger, chemistry not given here, further chemistry not given here; listed as Amaranthus palmeri) [Oligo T25471]” was tested. Which “Injury rating: enhancement” value did it give?
Answer: The value was “able to enhance the effect of WMAX”.

Question: Which “Injury rating: enhancement” value does the source give for “T25473: A. palmeri OEP80 trigger dsRNA polynucleotide, SEQ ID NO: 1563 (GCTGCTTGCCAAAGGCGAGTGTGCCTACACGGGTGACTTAGGATCCTCAATGTTAGTC; double-stranded RNA trigger, chemistry not given here, further chemistry not given here; listed as Amaranthus palmeri) [Oligo T25473]” here?
Answer: The value was “able to enhance the effect of WMAX”.

Question: Which “Injury rating: enhancement” value does the source give for “T25474: A. palmeri OEP80 trigger dsRNA polynucleotide, SEQ ID NO: 1564 (GTCTTAAGCATGGAACAAGGTCTTCCTATCTATCCTGAGTGGCTGTGTTTTAATC; double-stranded RNA trigger, chemistry not given here, further chemistry not given here; listed as Amaranthus palmeri) [Oligo T25474]” here?
Answer: The value was “able to enhance the effect of WMAX”.

Question: How did the “Injury rating: enhancement” value turn out when “T25475: A. palmeri OEP80 trigger dsRNA polynucleotide, SEQ ID NO: 1565 (GTTTTAATCGAGTCAACGCTCGTGCTAGGTCAGGGGTGGACATTGGTCCAGC; double-stranded RNA trigger, chemistry not given here, further chemistry not given here; listed as Amaranthus palmeri) [Oligo T25475]” was run?
Answer: The value was “able to enhance the effect of WMAX”.

Question: How did the “Injury rating: enhancement” value turn out when “T25477: A. palmeri OEP80 trigger dsRNA polynucleotide, SEQ ID NO: 1567 (GTTTGCGATCGGTGGTACAAATAGTGTGAGAGGATATGAAGAAGGTGCCGTTGGC; double-stranded RNA trigger, chemistry not given here, further chemistry not given here; listed as Amaranthus palmeri) [Oligo T25477]” was run?
Answer: Its value is “able to enhance the effect of WMAX”.

Question: How did the “Injury rating: enhancement” value turn out when “T25478: A. palmeri OEP80 trigger dsRNA polynucleotide, SEQ ID NO: 1568 (GCTCAGGCCTTTCATACGTAGTGGGCTGTGGAGAAGTTTCCTTCCCTCTGTATGGTC; double-stranded RNA trigger, chemistry not given here, further chemistry not given here; listed as Amaranthus palmeri) [Oligo T25478]” was run?
Answer: The value was “able to enhance the effect of WMAX”.

Question: Which “Injury rating: enhancement” value does the source give for “T29213: A. palmeri OEP80 trigger dsRNA polynucleotide, SEQ ID NO: 1573 (GGATATGAAGAAGGTGCCGTTGGC; double-stranded RNA trigger, chemistry not given here, further chemistry not given here; listed as Amaranthus palmeri) [Oligo T29213]” here?
Answer: The value was “able to enhance the effect of WMAX”.

Question: For B1, which “Injury rating: enhancement” value is on record?
Answer: Its value is “able to enhance the effect of WMAX”.

Question: B2 was tested. Which “Injury rating: enhancement” value did it give?
Answer: Its value is “able to enhance the effect of WMAX”.
